# Experimental data: US20240009271A1, “METHODS OF TREATING METASTATIC CANCERS USING AXL DECOY RECEPTORS” (Aravive Inc, priority 2017, published 2024)
# Tested on: MDA-MB-231 Axl+ TNBC cells
# Experiment: MDA-MB-231 Matrigel cell invasion assay
# Assay type: cell-based
# Settings: Homo sapiens
# Protocol: Inhibition of GAS6-induced invasion/migration was evaluated in models for triple-negative breast (MDA-MB-231) and ovarian (OVCAR8) cancers using the Corning® Matrigel® or collagen invasion assays, respectively, and using an AXL decoy receptor which comprises a soluble AXL variant polypeptide comprising amino acid changes relative to wild-type AXL sequence (SEQ ID NO:1) at the following positions: (a) glycine 32; (b) aspartic acid 87; (c) alanine 72; (d) valine 92; and (e) glycine 127, lacking the AXL transmembrane domain, lacking a functional FN domain, and comprising an Fc domain linked to the soluble AXL variant polypeptide by a peptide linker (hereinafter referred to as AVB-S6-500).
# AVB-S6-500 and MDA-MB-231 Axl^+ TNBC cells in serum free media were seeded in the top of a Matrigel-coated Boyden Chamber. Media with serum as a chemo-attractant was added to the chamber bottom. After 24 hours incubation, the number of cells that migrated across the Matrigel were counted and expressed as the fraction of invasive cells relative to a PBS control (FIG. 1A).
# Representative images from the AVB-S6-500 treated MDA-MB-231 cells are depicted in FIG. 2.
smiles,measurement,value
"COc1cc(Nc2c(C#N)cnc3cc(OCCCN4CCN(C)CC4)c(OC)cc23)c(Cl)cc1Cl [Bosutinib, bosutinib]",IC50,24 nM
